Assay results: PubChem BioAssay AID1918998 (Molecular Pharmacology Branch, DTP, NCI, 2023)

Test system: 521955-158-R2-J5-PDC complex spheroid growth
Experiment: Anticancer human tumor 521955-158-R2-J5-PDC patient-derived pancreatic carcinoma cell line growth inhibition [AhR]
Conditions: for IC50: curve of first compound; for viability, T/C: stronger effect = lower value
Summary of the method: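 Spheroids combined tumor cells with HUVEC endothelial cells and human MSCs as stroma. AhR antagonists were paired with standard or investigational drugs, each dosed in half-log steps down from near clinical Cmax, or from 10 microM where Cmax was unknown.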

[1] = second compound 0.1 µM, first compound 0.0316 µM
[2] = second compound 0.1 µM, first compound 0.1 µM
[3] = second compound 0.1 µM, first compound 0.316 µM
[4] = second compound 0.1 µM, first compound 1 µM
[5] = second compound 0.1 µM, first compound 3.16 µM
[6] = second compound 0.1 µM, first compound 10 µM
[7] = second compound 0.316 µM, first compound 0.0316 µM
[8] = second compound 0.316 µM, first compound 0.1 µM
[9] = second compound 0.316 µM, first compound 0.316 µM
[10] = second compound 0.316 µM, first compound 1 µM
[11] = second compound 0.316 µM, first compound 3.16 µM
[12] = second compound 0.316 µM, first compound 10 µM
[13] = second compound 1 µM, first compound 0.0316 µM
[14] = second compound 1 µM, first compound 0.1 µM
[15] = second compound 1 µM, first compound 0.316 µM
[16] = second compound 1 µM, first compound 1 µM
[17] = second compound 1 µM, first compound 3.16 µM
[18] = second compound 1 µM, first compound 10 µM
[19] = second compound 3.16 µM, first compound 0.0316 µM
[20] = second compound 3.16 µM, first compound 0.1 µM
[21] = second compound 3.16 µM, first compound 0.316 µM
[22] = second compound 3.16 µM, first compound 1 µM
[23] = second compound 3.16 µM, first compound 3.16 µM
[24] = second compound 3.16 µM, first compound 10 µM
[25] = second compound 10 µM, first compound 0.0316 µM
[26] = second compound 10 µM, first compound 0.1 µM
[27] = second compound 10 µM, first compound 0.316 µM
[28] = second compound 10 µM, first compound 1 µM
[29] = second compound 10 µM, first compound 3.16 µM
[30] = second compound 10 µM, first compound 10 µM
[31] = second compound 0.1 µM, first compound 0.00949 µM
[32] = second compound 0.1 µM, first compound 0.03 µM
[33] = second compound 0.1 µM, first compound 0.0949 µM
[34] = second compound 0.1 µM, first compound 0.3 µM
[35] = second compound 0.316 µM, first compound 0.00949 µM
[36] = second compound 0.316 µM, first compound 0.03 µM
[37] = second compound 0.316 µM, first compound 0.0949 µM
[38] = second compound 0.316 µM, first compound 0.3 µM
[39] = second compound 1 µM, first compound 0.00949 µM
[40] = second compound 1 µM, first compound 0.03 µM
[41] = second compound 1 µM, first compound 0.0949 µM
[42] = second compound 1 µM, first compound 0.3 µM
[43] = second compound 3.16 µM, first compound 0.00949 µM
[44] = second compound 3.16 µM, first compound 0.03 µM
[45] = second compound 3.16 µM, first compound 0.0949 µM
[46] = second compound 3.16 µM, first compound 0.3 µM
[47] = second compound 10 µM, first compound 0.00949 µM
[48] = second compound 10 µM, first compound 0.03 µM
[49] = second compound 10 µM, first compound 0.0949 µM
[50] = second compound 10 µM, first compound 0.3 µM
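For viability, T/C in this document: spheroids mix tumor cells with HUVEC endothelium and human MSC stroma; luminescence taken as viability surrogate after a week of drug exposure.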

## CC1(C)CCC(CN2CCN(c3ccc(C(=O)NS(=O)(=O)c4ccc(NCC5CCOCC5)c([N+](=O)[O-])c4)c(Oc4cnc5[nH]ccc5c4)c3)CC2)=C(c2ccc(Cl)cc2)C1 + CC(CO)NC(=O)c1cc(-c2ccc(Cl)cc2)nn(-c2cnn(C)c2)c1=O
Second compound 0.1 µM
  IC50: > 10000 nM
Second compound 0.316 µM
  IC50: > 10000 nM
Second compound 1 µM
  IC50: > 10000 nM
Second compound 3.16 µM
  IC50: > 10000 nM
Second compound 10 µM
  IC50: > 10000 nM
[1]
  viability, T/C: 103%
[2]
  viability, T/C: 125%
[3]
  viability, T/C: 92.1%
[4]
  viability, T/C: 92.7%
[5]
  viability, T/C: 98%
[6]
  viability, T/C: 67.3%
[7]
  viability, T/C: 115%
[8]
  viability, T/C: 111%
[9]
  viability, T/C: 124%
[10]
  viability, T/C: 100%
[11]
  viability, T/C: 111%
[12]
  viability, T/C: 67.7%
[13]
  viability, T/C: 93.1%
[14]
  viability, T/C: 105%
[15]
  viability, T/C: 122%
[16]
  viability, T/C: 138%
[17]
  viability, T/C: 124%
[18]
  viability, T/C: 56%
[19]
  viability, T/C: 123%
[20]
  viability, T/C: 99.1%
[21]
  viability, T/C: 113%
[22]
  viability, T/C: 113%
[23]
  viability, T/C: 108%
[24]
  viability, T/C: 61.9%
[25]
  viability, T/C: 90.2%
[26]
  viability, T/C: 120%
[27]
  viability, T/C: 109%
[28]
  viability, T/C: 92.8%
[29]
  viability, T/C: 95.1%
[30]
  viability, T/C: 63.7%

## CC1COCCN1c1cc(C2(S(C)(=N)=O)CC2)nc(-c2ccnc3[nH]ccc23)n1 (stereo not given) + CC(CO)NC(=O)c1cc(-c2ccc(Cl)cc2)nn(-c2cnn(C)c2)c1=O
Second compound 0.1 µM
  IC50: 2440 nM
Second compound 0.316 µM
  IC50: 2220 nM
Second compound 1 µM
  IC50: 2270 nM
Second compound 3.16 µM
  IC50: 2250 nM
Second compound 10 µM
  IC50: 1810 nM
[1]
  viability, T/C: 114%
[2]
  viability, T/C: 147%
[3]
  viability, T/C: 125%
[4]
  viability, T/C: 111%
[5]
  viability, T/C: 32.3%
[6]
  viability, T/C: 17.2%
[7]
  viability, T/C: 110%
[8]
  viability, T/C: 106%
[9]
  viability, T/C: 130%
[10]
  viability, T/C: 113%
[11]
  viability, T/C: 21.8%
[12]
  viability, T/C: 14.1%
[13]
  viability, T/C: 113%
[14]
  viability, T/C: 108%
[15]
  viability, T/C: 103%
[16]
  viability, T/C: 125%
[17]
  viability, T/C: 24.8%
[18]
  viability, T/C: 12.7%
[19]
  viability, T/C: 114%
[20]
  viability, T/C: 117%
[21]
  viability, T/C: 146%
[22]
  viability, T/C: 105%
[23]
  viability, T/C: 20.6%
[24]
  viability, T/C: 12.3%
[25]
  viability, T/C: 89.2%
[26]
  viability, T/C: 123%
[27]
  viability, T/C: 110%
[28]
  viability, T/C: 85%
[29]
  viability, T/C: 17.3%
[30]
  viability, T/C: 11.8%

## CCN(c1cc(-c2ccc(CN3CCOCC3)cc2)cc(C(=O)NCc2c(C)cc(C)[nH]c2=O)c1C)C1CCOCC1 + CC(CO)NC(=O)c1cc(-c2ccc(Cl)cc2)nn(-c2cnn(C)c2)c1=O
Second compound 0.1 µM
  IC50: > 3000 nM
Second compound 0.316 µM
  IC50: > 3000 nM
Second compound 1 µM
  IC50: > 3000 nM
Second compound 3.16 µM
  IC50: > 3000 nM
Second compound 10 µM
  IC50: > 3000 nM
[31]
  viability, T/C: 121%
[32]
  viability, T/C: 110%
[33]
  viability, T/C: 102%
[34]
  viability, T/C: 80.8%
Second compound 0.1 µM, first compound 0.949 µM
  viability, T/C: 81.1%
Second compound 0.1 µM, first compound 3 µM
  viability, T/C: 102%
[35]
  viability, T/C: 103%
[36]
  viability, T/C: 103%
[37]
  viability, T/C: 97.4%
[38]
  viability, T/C: 101%
Second compound 0.316 µM, first compound 0.949 µM
  viability, T/C: 87.6%
Second compound 0.316 µM, first compound 3 µM
  viability, T/C: 86.5%
[39]
  viability, T/C: 105%
[40]
  viability, T/C: 93.7%
[41]
  viability, T/C: 129%
[42]
  viability, T/C: 94.5%
Second compound 1 µM, first compound 0.949 µM
  viability, T/C: 72.5%
Second compound 1 µM, first compound 3 µM
  viability, T/C: 82.6%
[43]
  viability, T/C: 90.6%
[44]
  viability, T/C: 79.3%
[45]
  viability, T/C: 99.1%
[46]
  viability, T/C: 86.7%
Second compound 3.16 µM, first compound 0.949 µM
  viability, T/C: 74%
Second compound 3.16 µM, first compound 3 µM
  viability, T/C: 91%
[47]
  viability, T/C: 91%
[48]
  viability, T/C: 96.8%
[49]
  viability, T/C: 84.9%
[50]
  viability, T/C: 77.4%
Second compound 10 µM, first compound 0.949 µM
  viability, T/C: 74.4%
Second compound 10 µM, first compound 3 µM
  viability, T/C: 60.7%

## Nc1ncn(C2CC(O)C(CO)S2)c(=O)n1 (stereo not given) + CC(CO)NC(=O)c1cc(-c2ccc(Cl)cc2)nn(-c2cnn(C)c2)c1=O
Second compound 0.1 µM
  IC50: > 300 nM
Second compound 0.316 µM
  IC50: > 300 nM
Second compound 1 µM
  IC50: > 300 nM
Second compound 3.16 µM
  IC50: > 300 nM
Second compound 10 µM
  IC50: > 300 nM
Second compound 0.1 µM, first compound 0.000949 µM
  viability, T/C: 79.4%
Second compound 0.1 µM, first compound 0.003 µM
  viability, T/C: 89.4%
[31]
  viability, T/C: 97.9%
[32]
  viability, T/C: 89.9%
[33]
  viability, T/C: 72.6%
[34]
  viability, T/C: 71.2%
Second compound 0.316 µM, first compound 0.000949 µM
  viability, T/C: 115%
Second compound 0.316 µM, first compound 0.003 µM
  viability, T/C: 107%
[35]
  viability, T/C: 107%
[36]
  viability, T/C: 116%
[37]
  viability, T/C: 94.1%
[38]
  viability, T/C: 84.4%
Second compound 1 µM, first compound 0.000949 µM
  viability, T/C: 107%
Second compound 1 µM, first compound 0.003 µM
  viability, T/C: 107%
[39]
  viability, T/C: 106%
[40]
  viability, T/C: 108%
[41]
  viability, T/C: 73%
[42]
  viability, T/C: 99.3%
Second compound 3.16 µM, first compound 0.000949 µM
  viability, T/C: 102%
Second compound 3.16 µM, first compound 0.003 µM
  viability, T/C: 116%
[43]
  viability, T/C: 141%
[44]
  viability, T/C: 111%
[45]
  viability, T/C: 86.1%
[46]
  viability, T/C: 73.1%
Second compound 10 µM, first compound 0.000949 µM
  viability, T/C: 73.8%
Second compound 10 µM, first compound 0.003 µM
  viability, T/C: 81.3%
[47]
  viability, T/C: 102%
[48]
  viability, T/C: 76.9%
[49]
  viability, T/C: 88.3%
[50]
  viability, T/C: 81.5%
